Source: patent US20220062240A1, “METHODS OF TREATING CANCER USING A CLK INHIBITOR” (BioSplice Therapeutics, Inc., priority 2018, published 2022)
Read-outs that look alike come from different tables or passages of the source.

Experiments:
[1] = test system: prostate cancer (5 cell lines); experiment: CellTiter-Glo Viability Assay, prostate cancer; format: cell-based; details: Homo sapiens
[2] = test system: haematopoietic & lymphoid tumors (13 cell lines); experiment: CellTiter-Glo Viability Assay, haematopoietic & lymphoid tumors; format: cell-based; details: Homo sapiens, inhibition of cancer cell proliferation
[3] = test system: ovarian cancer (4 cell lines); experiment: CellTiter-Glo Viability Assay, ovarian cancer; format: cell-based; details: Homo sapiens, inhibition of cancer cell proliferation
CLK2 = biological target: T1, CLK2 (Homo sapiens, UniProt P49760); experiment: CLK2 kinase activity assay (Z-lyte, Ser/Thr 6 peptide); format: biochemical; details: recombinant CLK2 kinase, ATP 60 μM; read-out: EC50
T1 construct: purchased Thermo Fisher (Life Technologies), Z'-LYTE Kinase Assay Kits
Method: All reactions were performed in duplicate.

CAMA1 = experiment: CellTiter-Glo Viability Assay, breast cancer; format: cell-based; details: Homo sapiens, CAMA-1, 96 h; CAMA1, breast cancer, four days; read-out: EC50
BT-549 = experiment: CellTiter-Glo Viability Assay, breast cancer; format: cell-based; details: Homo sapiens, 96 h; BT-549, breast cancer, four days; read-out: EC50
HCC1599 = experiment: CellTiter-Glo Viability Assay, breast cancer; format: cell-based; details: Homo sapiens, 96 h; HCC1599, breast cancer, four days; read-out: EC50
MCF7 = experiment: CellTiter-Glo Viability Assay, breast cancer; format: cell-based; details: Homo sapiens, 96 h; MCF7, breast cancer, four days; read-out: EC50
ZR-75-1 = experiment: CellTiter-Glo Viability Assay, breast cancer; format: cell-based; details: Homo sapiens, 96 h; ZR-75-1, breast cancer, four days; read-out: EC50
MDA-MB-231-Luc = experiment: CellTiter-Glo Viability Assay, breast cancer; format: cell-based; details: Homo sapiens, 96 h; MDA-MB-231-Luc, breast cancer, four days; read-out: EC50
T47D = experiment: CellTiter-Glo Viability Assay, breast cancer; format: cell-based; details: Homo sapiens, 96 h, breast cancer, four days, read-out: EC50
DU4475 = experiment: CellTiter-Glo Viability Assay, breast cancer; format: cell-based; details: Homo sapiens, DU-4475, 96 h; DU4475, breast cancer, four days; read-out: EC50
all 50 cell lines = experiment: CellTiter-Glo Viability Assay, average across all cell lines; format: cell-based; details: Homo sapiens; across all 50 cell lines; read-out: average EC50 for inhibition of cancer cell proliferation
In short: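 Human cancer cell lines from breast, colorectal, haematopoietic/lymphoid, liver, lung, ovarian, pancreatic and prostate tumours were seeded at 300-3,000 cells/well and exposed to compound in duplicate for four days at 37° C, 5% CO2. Viable cells were measured by ATP luminescence; EC50 values came from dose-response curves.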

[4] = test system: colorectal cancer (6 cell lines); experiment: CellTiter-Glo Viability Assay, colorectal cancer; format: cell-based; details: Homo sapiens, inhibition of cancer cell proliferation
[5] = test system: lung cancer (4 cell lines); experiment: CellTiter-Glo Viability Assay, lung cancer; format: cell-based; details: Homo sapiens, inhibition of cancer cell proliferation
[6] = test system: liver cancer (3 cell lines); experiment: CellTiter-Glo Viability Assay, liver cancer; format: cell-based; details: Homo sapiens, inhibition of cancer cell proliferation
CLK3 = CLK3 (Homo sapiens, UniProt P49761); experiment: CLK3 kinase activity assay (Z-lyte, Ser/Thr 18 peptide)
[7] = test system: pancreatic cancer (8 cell lines); experiment: CellTiter-Glo Viability Assay, pancreatic cancer; format: cell-based; details: Homo sapiens, inhibition of cancer cell proliferation

Sequence of CLK3 (P49761 whole entry): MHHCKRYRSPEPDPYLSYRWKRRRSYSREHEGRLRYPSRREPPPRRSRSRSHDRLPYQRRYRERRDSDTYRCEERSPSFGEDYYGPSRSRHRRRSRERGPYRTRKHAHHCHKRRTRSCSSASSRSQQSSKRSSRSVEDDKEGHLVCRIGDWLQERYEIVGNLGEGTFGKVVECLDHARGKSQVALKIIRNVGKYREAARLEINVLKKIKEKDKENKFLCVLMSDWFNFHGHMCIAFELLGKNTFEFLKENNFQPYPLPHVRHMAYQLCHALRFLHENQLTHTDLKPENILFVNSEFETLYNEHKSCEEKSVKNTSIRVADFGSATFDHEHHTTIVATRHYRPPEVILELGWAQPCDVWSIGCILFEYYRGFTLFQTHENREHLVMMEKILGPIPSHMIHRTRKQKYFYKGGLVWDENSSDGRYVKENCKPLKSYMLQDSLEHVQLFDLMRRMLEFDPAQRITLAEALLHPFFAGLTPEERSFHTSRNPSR
T1 sequence (P49760 whole entry): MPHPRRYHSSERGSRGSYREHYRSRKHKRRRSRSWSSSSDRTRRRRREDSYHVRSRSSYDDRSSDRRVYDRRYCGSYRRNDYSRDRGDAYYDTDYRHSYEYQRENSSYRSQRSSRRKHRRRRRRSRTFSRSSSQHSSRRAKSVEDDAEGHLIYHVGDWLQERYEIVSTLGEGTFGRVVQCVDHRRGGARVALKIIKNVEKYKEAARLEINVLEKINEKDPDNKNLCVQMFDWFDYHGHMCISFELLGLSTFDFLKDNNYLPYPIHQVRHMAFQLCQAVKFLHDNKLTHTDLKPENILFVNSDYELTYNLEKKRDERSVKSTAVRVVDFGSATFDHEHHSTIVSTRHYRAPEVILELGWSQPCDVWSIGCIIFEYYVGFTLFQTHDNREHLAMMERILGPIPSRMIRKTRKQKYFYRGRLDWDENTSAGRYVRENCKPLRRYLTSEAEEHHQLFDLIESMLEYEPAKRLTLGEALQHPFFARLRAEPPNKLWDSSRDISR

EC50 ([1]; DU-145, read-out: Prostate cancer EC50 Du-145): 6.49 µM
EC50 ([1]; PC-3, PC3 cell line, inhibition of cancer cell proliferation, read-out: Prostate cancer EC50 PC3): 4.42 µM
EC50 ([1]; 22Rv1 cell line, inhibition of cancer cell proliferation, read-out: Prostate cancer EC50 22Rv1): 3.98 µM
EC50 ([1]; LNCap clone FGC cell line, inhibition of cancer cell proliferation, read-out: Prostate cancer EC50 LNCap clone FGC): 6.85 µM
EC50 ([1]; VCaP (Sigma) cell line, inhibition of cancer cell proliferation, read-out: Prostate cancer EC50 VCaP (Sigma)): 6.66 µM
EC50 ([2]; DND41, DND-41 cell line, read-out: Haematopoietic & Lymphoid tumors, EC50 (μM) DND-41): 7.09 µM
EC50 ([2]; MV4-11, MV-4-11 cell line, read-out: Haematopoietic & Lymphoid tumors, EC50 (μM) MV-4-11): 3.34 µM
EC50 ([2]; Rec1, REC-1 cell line, read-out: Haematopoietic & Lymphoid tumors, EC50 (μM) REC-1): 3.52 µM
EC50 ([2]; SU-DHL-4, SUDHL4 cell line, read-out: Haematopoietic & Lymphoid tumors, EC50 (μM) SUDHL4): 3.46 µM
EC50 ([2]; HL-60 cell line, read-out: Haematopoietic & Lymphoid tumors, EC50 (μM) HL-60): 8.7 µM
EC50 ([2]; JM1 cell line, read-out: Haematopoietic & Lymphoid tumors, EC50 (μM) JM1): 1.69 µM
EC50 ([2]; JURKAT, Clone E6-1 cell line, read-out: Haematopoietic & Lymphoid tumors, EC50 (μM) JURKAT, Clone E6-1): > 10 µM
EC50 ([2]; JeKo-1 cell line, read-out: Haematopoietic & Lymphoid tumors, EC50 (μM) JeKo-1): 1.49 µM
EC50 ([2]; KASUMI-1 cell line, read-out: Haematopoietic & Lymphoid tumors, EC50 (μM) KASUMI-1): 3.19 µM
EC50 ([2]; Loucy cell line, read-out: Haematopoietic & Lymphoid tumors, EC50 (μM) Loucy): 3.72 µM
EC50 ([2]; MOLT-4 cell line, read-out: Haematopoietic & Lymphoid tumors, EC50 (μM) MOLT-4): 7.07 µM
EC50 ([2]; TF-1 cell line, read-out: Haematopoietic & Lymphoid tumors, EC50 (μM) TF-1): 6 µM
EC50 ([2]; TOLEDO cell line, read-out: Haematopoietic & Lymphoid tumors, EC50 (μM) TOLEDO): 2.21 µM
EC50 ([3]; PA-1, PA1 cell line, read-out: Ovarian cancer, EC50 (μM) PA1): 3.04 µM
EC50 ([3]; TOV112D, TOV-112D cell line, read-out: Ovarian cancer, EC50 (μM) TOV-112D): 3.63 µM
EC50 ([3]; OV-90 cell line, read-out: Ovarian cancer, EC50 (μM) OV-90): 7.97 µM
EC50 ([3]; OVCAR-3 cell line, read-out: Ovarian cancer, EC50 (μM) OVCAR-3): 2.62 µM
EC50 (CLK2): 0.012 µM
EC50 (CAMA1): 5.21 µM
EC50 (BT-549): 4.74 µM
EC50 (HCC1599): 2.33 µM
EC50 (MCF7): > 10 µM
EC50 (ZR-75-1): 6.81 µM
EC50 (MDA-MB-231-Luc): 6.47 µM
EC50 (T47D): 8.47 µM
EC50 (DU4475): 3.87 µM
EC50 ([4]; HCT-116, HCT116 cell line, read-out: Colorectal cancer, EC50 (μM) HCT116): 2.93 µM
EC50 ([4]; HT-29, HT29 cell line, read-out: Colorectal cancer, EC50 (μM) HT29): 6.16 µM
EC50 ([4]; SW-620, SW620 cell line, read-out: Colorectal cancer, EC50 (μM) SW620): 1.82 µM
EC50 ([4]; DLD-1 cell line, read-out: Colorectal cancer, EC50 (μM) DLD-1): 5.01 µM
EC50 ([4]; SW48 cell line, read-out: Colorectal cancer, EC50 (μM) SW48): 1.49 µM
EC50 ([4]; SW480 cell line, read-out: Colorectal cancer, EC50 (μM) SW480): 3.24 µM
EC50 ([5]; A-427, A427 cell line, read-out: Lung cancer, EC50 (μM) A427): 4.18 µM
EC50 ([5]; HCC78, HCC-78 cell line, read-out: Lung cancer, EC50 (μM) HCC-78): 8.18 µM
EC50 ([5]; NCI-H460 cell line, read-out: Lung cancer, EC50 (μM) NCI-H460): 7.41 µM
EC50 ([5]; NCI-H522 cell line, read-out: Lung cancer, EC50 (μM) NCI-H522): 3.3 µM
EC50 ([6]; SNU-398, SNU398 cell line, read-out: Liver cancer, EC50 SNU398): 1.37 µM
EC50 ([6]; HEPG2 cell line, read-out: Liver cancer, EC50 HEPG2): 3.44 µM
EC50 ([6]; PLC/PRF/5 cell line, read-out: Liver cancer, EC50 PLC/PRF/5): 9.52 µM
EC50 (CLK3): 0.343 µM
EC50 ([7]; BXPC-3, BxPC3 cell line, read-out: Pancreatic cancer, EC50 BxPC3): 9.16 µM
EC50 ([7]; CAPAN-1, Capan1 cell line, read-out: Pancreatic cancer, EC50 Capan1): 4.84 µM
EC50 ([7]; Capan-2, Capan2 cell line, read-out: Pancreatic cancer, EC50 Capan2): 8.87 µM
EC50 ([7]; MIA PaCa-2 cell line, read-out: Pancreatic cancer, EC50 MIA PaCa-2): 1.59 µM
EC50 ([7]; PANC 05.04 cell line, read-out: Pancreatic cancer, EC50 PANC 05.04): 5.51 µM
EC50 ([7]; PANC-1 cell line, read-out: Pancreatic cancer, EC50 PANC-1): 5.64 µM
EC50 ([7]; UPAFII cell line, read-out: Pancreatic cancer, EC50 UPAFII): 3.82 µM
SMILES: Cc1n[nH]c2cc(F)c(-c3cncc(CN4CCNCC4)c3)cc12 [Compound 63]
EC50 (all 50 cell lines): 5.05 µM
